Values quoted from earlier work in patent US20150110862A1, “Sweet Gum Fruit Extract as a Therapeutic Agent” (Board of Supervisors of Louisiana State University and …, priority 2007, published 2015).
In brackets after ≈: the same amount, converted by molar mass.

Tests used:
[1] = system: 39 human cancer cell lines; details: literature
[2] = system: UVB-radiation-induced photocarcinogenesis; details: oral administration, literature
two-stage carcinogenesis = details: literature
[3] = system: human prostate cancer PC3 cells; details: published articles

| Compound | cytotoxicity against 39 human cancer cell lines [1] | tumor incidence and tumor multiplicity vs control group [2] | anti-tumor activity, two-stage carcinogenesis assay (two-stage carcinogenesis) | IC50 against human prostate cancer PC3 cells (reported) [3] |
| --- | --- | --- | --- | --- |
| CC1(C)CCC2(C(=O)O)CCC3(C)C(=CC(=O)C4C5(C)CCC(=O)C(C)(C)C5CCC43C)C2C1 (centres unmarked) [3,11-dioxoolean-12-en-28-oic acid] | weaker activity |  |  |  |
| CC1(C)CCC2(C(=O)O)CCC3(C)C(=CCC4C5(CO)CCC(O)C(C)(C)C5CCC43C)C2C1 (stereo not drawn) [3α,25-dihydroxyolean-12-en-28-oic acid] | weaker activity |  |  |  |
| C=C(C)C1CCC2(C(=O)O)CCC3(C)C(CCC4C56CCC(O)(OC5)C(C)(C)C6CCC43C)C12 (stereo not drawn) [3β,25-epoxy-3α-hydroxylup-20(29)-en-28-oic acid] |  | approximate halving of the tumor incidence and tumor multiplicity | moderate inhibitory activities |  |
| C=C(C)[C@@H]1CC[C@]2(C(=O)O)CC[C@]3(C)[C@@H](CC[C@@H]4[C@@]5(C)CCC(=O)C(C)(C)[C@@H]5[C@H](O)C[C@]43C)[C@@H]12 [6β-hydroxy-3-oxolup-20 (29)-en-28-oic acid] | weaker activity |  |  |  |
| CC(=O)OC[C@]12CC[C@@H](O)C(C)(C)[C@@H]1CC[C@]1(C)[C@@H]2CC=C2[C@@H]3CC(C)(C)CC[C@]3(C(=O)O)CC[C@]21C [Terpenoid 1, 25-acetoxy-3α-hydroxyolean-12-en-28-oic acid] | strong cytotoxicity |  | moderate inhibitory activities | 5.9 µg/mL (≈ 11.5 µM) |
